Source: publication PMC6527222 (PLoS ONE, 2019)

Key:
JB6 P+ cells [1] = assay: SRB cytotoxicity assay; type: cell-based, mouse; settings: 72 hr; NT = no toxicity at any concentration tested
Method: 96-well plates were seeded with 3x10^3 JB6 P+ cells per well and allowed to attach overnight. […] Cell viability was determined using Sulforhodamine B (SRB) assay from Sigma-Aldrich according to the manufacturer’s protocol. Cellular protein content was measured using a Bio-Tek μQuant plate reader with KCJunior software.
Concentration-response curves were normalized so that the EGF positive control on each 96-well plate was set to 100% and the control wells on each plate were set to 0%. Toxicity assays (SRB and MTS) were normalized so that the control on each plate represented 100% viability. Normalization allowed for comparison of data over a range of JB6 P+ cell cultures, passages, and experimental time for the shRNA studies, as well as control for variation in the EGF response, and importantly allowed for a direct comparison to all concentration-response experiments including the toxicity assays. […] All group sizes were determined via previous studies to provide statistically meaningful data. In the soft agar assays, key results were repeated with different JB6 P+ cells to confirm the results. Similarly, the shRNA studies were conducted with three independent concentration-response curves with different JB6 P+ cell stocks. […] For two sample comparisons a t-test was utilized, and when comparing multiple samples a One-, Two-, or Three-Factor ANOVA followed by Tukey-Kramer post hoc test was utilized depending on the data. For all tests, statistical difference was donated when p < 0.05.
The IΔ2*PSD is expressed in x-axis units (log [M]) as is an IC50 and it represents the first concentration where it is expected to observe a statistical decrease in the measured signal.
Using the formula provided by GraphPad Prism or a straight line for the point-to-point graphs, the X-axis value for point Y was determined. The error is ascribed to this measurement via adding and subtracting the pooled standard deviation (PSD) to/from point Y generating point Y ± PSD. The two new points were then transformed to the X-axis units as was done for point Y creating an asymmetric error in sigmoidal plots. When the error was asymmetric, the larger error value was chosen to err on the conservative side. See S1 Fig for a pictoral explination of the method. The data is presented as IΔ2*PSD ± error.

JB6 P+ cells [2] = assay: Soft agar assay with competitive adrenergic receptor antagonists; type: cell-based; settings: Mus musculus, alone
Method: Ten ng/mL EGF was used to promote the anchorage-independent growth of JB6 cells. […] Plates were incubated at 37°C, 5% CO2 for 14 days. Colonies with greater than ten cells were counted manually under a microscope. Antagonists identified in our assays as ineffective at blocking EGF-mediated transformation of JB6 P+ cells yet displaying no or little toxicity were used as competitive antagonists towards carvedilol-mediated prevention of EGF-induced transformation of JB6 P+ cells.

[3] = tested on: hairless mice (UV-induced skin thickening); assay: Eight dose UV exposure, bi-folded epidermal thickness in hairless wild type and β2-AR knockout mice; type: in vivo, mouse; settings: 5 μM in 200 μL acetone topically every other day, 200 mJ/cm^2 UV, eight irradiations
Method: The Western University of Health Sciences’ Institutional Animal Care and Use Committee (WesternU IACUC) approved all animal studies prior to initiating any experiments. The animal studies were carried out under WesternU IACUC recommendations and guidelines, which follow NIH guidelines. Mice had access to water and food ad libitum and housed on a 12-hour light/dark cycle with 35% humidity. Homozygous β1-AR and β2-AR null mice (Adrb1^tm1Bkk Adrb2^tm1Bkk/J Stock Number 003810) were purchased from Jackson Laboratory (Bar Harbor, ME); the double knockout mice were characterized previously. The double knockout mice were bred with C57BL/6J from Jackson Lab to generate a heterozygous F1 generation. The F1 generation was bred together to generate the F2 generation of which 1/16th of the offspring were a β2-AR knockout mouse. SKH-1 mice purchased from Charles River (Wilmington, MA) were bred with the β2-AR knockout mice generating a second heterozygous F1 generation. The F1 generation was bred together to generate the F2 generation of which 1/16th of the offspring were a hairless β2-AR knockout mouse. The F2 generation was backcrossed with a new batch of SKH-1 from Charles River to generate mice more efficiently. The mice used in this study are 75% SKH-1 and 25% mixed background. Following experimentation, and to cull the unused mice in a colony, mice were euthanized via exposure to 32% Isoflurane followed by cervical dislocation to ensure euthanization prior to disposal.
The first two weeks were pretreatment and the second two weeks were during the UV irradiation procedure, but drugs were applied the day after UV exposure to avoid sunscreen effects. All groups involved with UV were irradiated with 200 mJ/cm^2 dose of UV every other day for a total of eight irradiations. Bi-folded epidermal thickness was measured using a digital caliper before drug treatment on non-radiation days. Three skin thickness measurements were taken along the left, middle, and right dorsal epidermal layer, and the mean thickness was recorded for each mouse.

β2-AR = tested on: β2-AR; set-up: method as in as printed in each cell (43-46, 48-54, 56-58); settings: as described in the references; ref (43-46, 48-54, 56-58); cited from earlier work
[4] = carvedilol cohort versus non-carvedilol cohort; cited from earlier work
A549, lung tumor, cells = settings: cited from earlier work

COc1ccccc1OCCNCC(O)COc1cccc2[nH]c3ccccc3c12 (stereo not drawn) [Carvedilol]
SRB Assay Log IΔ2*PSD (JB6 P+ cells [1]): -4.89 ± 0.09 log [M]
IC50 (JB6 P+ cells [2]; CGP 12177 experiment (Fig 5B)): 331 nM
IC50 (JB6 P+ cells [2]; HEAT HCl experiment (Fig 5C)): 275 nM
IC50 (JB6 P+ cells [2]; nadolol experiment (Fig 5A)): 282 nM
effect on UV-induced skin thickening, words ([3]; wild type mice): statistical difference from the UV control on day 8 onward
effect on UV-induced skin thickening, words ([3]; β2-AR knockout mice): greater effects in the knockout mice
Pharmacological property at β2-AR (β2-AR): Biased agonist/ partial ERK agonist [43, 44]
reduction in the incidence of all types of cancer [4]: 26%
reducing the growth of injected A549 cells in vivo, words (A549, lung tumor, cells): not effective
